Results on one molecule are retold here after patent publication US12653795B1, “Bupropion as a modulator of drug activity” (ANTECIP BIOVENTURES II LLC, priority 2022, dated 2026).

This data set is described as follows: Pharmacokinetics after administration of the subject combination. To be noted: co-administered with bupropion; dextromethorphan 30 to 60 mg, bupropion 75 to 150 mg.

Description: In the subject combination, bupropion inhibits the metabolism of dextromethorphan via CYP2D6.

Consider `COc1ccc2c(c1)[C@]13CCCC[C@@H]1[C@H](C2)N(C)CC3` [dextromethorphan], for which the “pharmacokinetics at steady state (dose proportionality of AUC and Cmax)” value is given as “nonlinear pharmacokinetics”.
